Measurements: US9211310B2, “Use of a Chinese medicine composition in preparing medicaments for treating secondary prevention of myocardial infarction” (TASLY PHARMACEUTICAL GROUP CO., LTD, priority 2010, dated 2015)

Tested on: patients after acute myocardial infarction
Assay: Life quality, Seattle Angina Questionnaire (SAQ), same clinical trial
Type: in vivo, human
Details: 1 month after treatment
Text: 3508 patients who were in accordance with the diagnostic standards of AMI for 28 days to 2 years and differentiated as Qi deficiency and blood stagnation syndrome by TCM were studied. 0.5 g Chinese medicine composition prepared by the method of EXAMPLE 1 (Coded as QSYQ) was administrated half an hour after meal, 3 times per day.
There were 19 questions in the Seattle angina questionnaire (SAQ), including 5 parts: physical limitation (PL), anginal stability (AS), anginal frequency (AF), treatment satisfaction (TS) and disease perception (DP). After being given necessary explanation by doctors, the questions were answered independently by patients.
They included the overall survival time, angina pectoris score, TCM symptom score and life quality score, where angina pectoris score, TCM symptom score and life quality score were evaluated at randomization, in 1st, 3rd, 6th, 9th, 12th month after treatment and 18th month after follow-up.
All evaluation results of SAQ were described during the period of observation, and Wilcoxon rank sum test was used for inter-group comparison.
The evaluation results in the SAQ were depicted in different observations, and inter-group comparison was tested by Wilcoxon Rank-sum test.

## CC(=O)Oc1ccccc1C(=O)O [Control group, aspirine]
FAS
  SAQ 2nd question: Clearly increased, % of cases: (0.92%)
  SAQ 2nd question: Clearly increased, cases: 16
  SAQ 2nd question: Clearly reduced, % of cases: (16.50%)
  SAQ 2nd question: Clearly reduced, cases: 287
  SAQ 2nd question: Same, % of cases: (49.05%)
  SAQ 2nd question: Same, cases: 853
  SAQ 2nd question: Slightly increased, % of cases: (3.05%)
  SAQ 2nd question: Slightly increased, cases: 53
  SAQ 2nd question: Slightly reduced, % of cases: (30.48%)
  SAQ 2nd question: Slightly reduced, cases: 530
  SAQ 3rd question: 1-2 times per week, % of cases: (30.48%)
  SAQ 3rd question: 1-2 times per week, cases: 530
  SAQ 3rd question: 1-3 times per day, % of cases: (3.05%)
  SAQ 3rd question: 1-3 times per day, cases: 53
  SAQ 3rd question: <1 time per week, % of cases: (16.50%)
  SAQ 3rd question: <1 time per week, cases: 287
  SAQ 3rd question: No onset, % of cases: (0.00%)
  SAQ 3rd question: No onset, cases: 0
  SAQ 3rd question: ≧3 times per week, % of cases: (49.05%)
  SAQ 3rd question: ≧3 times per week, cases: 853
  SAQ 3rd question: ≧4 times per day, % of cases: (0.92%)
  SAQ 3rd question: ≧4 times per day, cases: 16
  SAQ Question 1-3: Mildly limited, number of patients: 126
  SAQ Question 1-3: Mildly limited, percent of patients: (7.23%)
  SAQ Question 1-3: Moderately limited, number of patients: 34
  SAQ Question 1-3: Moderately limited, percent of patients: (1.95%)
  SAQ Question 1-3: Not limited, number of patients: 1261
  SAQ Question 1-3: Not limited, percent of patients: (72.39%)
  SAQ Question 1-3: Other reasons, number of patients: 9
  SAQ Question 1-3: Other reasons, percent of patients: (0.52%)
  SAQ Question 1-3: Severely limited, number of patients: 5
  SAQ Question 1-3: Severely limited, percent of patients: (0.29%)
  SAQ Question 1-3: Slightly limited, number of patients: 307
  SAQ Question 1-3: Slightly limited, percent of patients: (17.62%)
  SAQ Question 1-4: Mildly limited, number of patients: 349
  SAQ Question 1-4: Mildly limited, percent of patients: (20.05%)
  SAQ Question 1-4: Moderately limited, number of patients: 159
  SAQ Question 1-4: Moderately limited, percent of patients: (9.13%)
  SAQ Question 1-4: Not limited, number of patients: 618
  SAQ Question 1-4: Not limited, percent of patients: (35.50%)
  SAQ Question 1-4: Other reasons, number of patients: 12
  SAQ Question 1-4: Other reasons, percent of patients: (0.69%)
  SAQ Question 1-4: Severely limited, number of patients: 35
  SAQ Question 1-4: Severely limited, percent of patients: (2.01%)
  SAQ Question 1-4: Slightly limited, number of patients: 568
  SAQ Question 1-4: Slightly limited, percent of patients: (32.62%)
  SAQ Question 1-5: Mildly limited, number of patients: 315
  SAQ Question 1-5: Mildly limited, percent of patients: (18.09%)
  SAQ Question 1-5: Moderately limited, number of patients: 196
  SAQ Question 1-5: Moderately limited, percent of patients: (11.26%)
  SAQ Question 1-5: Not limited, number of patients: 648
  SAQ Question 1-5: Not limited, percent of patients: (37.22%)
  SAQ Question 1-5: Other reasons, number of patients: 10
  SAQ Question 1-5: Other reasons, percent of patients: (0.57%)
  SAQ Question 1-5: Severely limited, number of patients: 32
  SAQ Question 1-5: Severely limited, percent of patients: (1.84%)
  SAQ Question 1-5: Slightly limited, number of patients: 540
  SAQ Question 1-5: Slightly limited, percent of patients: (31.02%)
  SAQ Question 1-9: Mildly limited, % of cases: (16.68%)
  SAQ Question 1-9: Mildly limited, cases: 284
  SAQ Question 1-9: Moderately limited, % of cases: (21.02%)
  SAQ Question 1-9: Moderately limited, cases: 358
  SAQ Question 1-9: Not limited, % of cases: (2.88%)
  SAQ Question 1-9: Not limited, cases: 49
  SAQ Question 1-9: Other reasons, % of cases: (6.17%)
  SAQ Question 1-9: Other reasons, cases: 105
  SAQ Question 1-9: Severely limited, % of cases: (41.93%)
  SAQ Question 1-9: Severely limited, cases: 714
  SAQ Question 1-9: Slightly limited, % of cases: (11.33%)
  SAQ Question 1-9: Slightly limited, cases: 193
PP
  SAQ 2nd question: Clearly increased, % of cases: (0.54%)
  SAQ 2nd question: Clearly increased, cases: 8
  SAQ 2nd question: Clearly reduced, % of cases: (16.75%)
  SAQ 2nd question: Clearly reduced, cases: 248
  SAQ 2nd question: Same, % of cases: (49.63%)
  SAQ 2nd question: Same, cases: 735
  SAQ 2nd question: Slightly increased, % of cases: (2.90%)
